{"source": "paper PMC10234496", "about": "(Organic letters, 2022)", "key": {"E. faecium": {"tested_on": "E. faecium", "assay": "MIC against E. faecium", "type": "cell-based, Enterococcus faecium", "settings": "Gram-positive; measured in duplicate"}, "A. baumannii": {"tested_on": "A. baumannii", "assay": "MIC against A. baumannii", "type": "cell-based, Acinetobacter baumannii", "settings": "Gram-negative; measured in duplicate"}, "E. cloacae": {"tested_on": "E. cloacae", "assay": "MIC against E. cloacae", "type": "cell-based", "settings": "Gram-negative; measured in duplicate"}, "P. aeruginosa": {"tested_on": "P. aeruginosa", "assay": "MIC against P. aeruginosa", "type": "cell-based, Pseudomonas aeruginosa", "settings": "Gram-negative; measured in duplicate"}, "K. pneumoniae": {"tested_on": "K. pneumoniae", "assay": "MIC against K. pneumoniae", "type": "cell-based, Klebsiella pneumoniae", "settings": "Gram-negative; measured in duplicate"}, "S. aureus": {"tested_on": "S. aureus", "assay": "MIC against S. aureus", "type": "cell-based, Staphylococcus aureus", "settings": "Gram-positive; measured in duplicate"}, "E. coli": {"tested_on": "E. coli", "assay": "MIC against E. coli", "type": "cell-based, Escherichia coli", "settings": "Gram-negative; measured in duplicate"}, "MDR S. aureus strains": {"tested_on": "MDR S. aureus strains", "assay": "MIC against MDR S. aureus strains", "type": "cell-based", "settings": "Figure 3, Table S9"}, "VRE clinical isolates": {"tested_on": "VRE clinical isolates", "assay": "MIC against VRE clinical isolates", "type": "cell-based, Vancomycin-resistant Enterococcus", "settings": "Figure 3, Table S9"}}}
{"substance": "Laterocidine", "values": [{"measurement": "MIC E. faecium", "setting": "E. faecium", "value": ">128", "unit": "µg/mL"}, {"measurement": "MIC A. baumannii", "setting": "A. baumannii", "value": 0.5, "unit": "µg/mL"}, {"measurement": "MIC E. cloacae", "setting": "E. cloacae", "value": 1, "unit": "µg/mL"}, {"measurement": "MIC P. aeruginosa", "setting": "P. aeruginosa", "value": 2, "unit": "µg/mL"}, {"measurement": "MIC K. pneumoniae", "setting": "K. pneumoniae", "value": 2, "unit": "µg/mL"}, {"measurement": "MIC S. aureus", "setting": "S. aureus", "value": ">128", "unit": "µg/mL"}, {"measurement": "MIC E. coli", "setting": "E. coli", "value": 0.5, "unit": "µg/mL"}]}
{"substance": "Paenibacterin", "values": [{"measurement": "MIC E. faecium", "setting": "E. faecium", "value": 8, "unit": "µg/mL"}, {"measurement": "MIC A. baumannii", "setting": "A. baumannii", "value": 8, "unit": "µg/mL"}, {"measurement": "MIC E. cloacae", "setting": "E. cloacae", "value": 4, "unit": "µg/mL"}, {"measurement": "MIC P. aeruginosa", "setting": "P. aeruginosa", "value": 8, "unit": "µg/mL"}, {"measurement": "MIC K. pneumoniae", "setting": "K. pneumoniae", "value": 8, "unit": "µg/mL"}, {"measurement": "MIC S. aureus", "setting": "S. aureus", "value": 16, "unit": "µg/mL"}, {"measurement": "MIC E. coli", "setting": "E. coli", "value": 4, "unit": "µg/mL"}]}
{"substance": "Tridecaptin A", "values": [{"measurement": "MIC against MDR S. aureus strains", "setting": "MDR S. aureus strains", "value": 128, "unit": "µg/mL"}, {"measurement": "MIC E. faecium", "setting": "E. faecium", "value": 64, "unit": "µg/mL"}, {"measurement": "MIC A. baumannii", "setting": "A. baumannii", "value": 4, "unit": "µg/mL"}, {"measurement": "MIC E. cloacae", "setting": "E. cloacae", "value": 2, "unit": "µg/mL"}, {"measurement": "MIC P. aeruginosa", "setting": "P. aeruginosa", "value": 64, "unit": "µg/mL"}, {"measurement": "MIC against VRE clinical isolates", "setting": "VRE clinical isolates", "value": 128, "unit": "µg/mL"}, {"measurement": "MIC K. pneumoniae", "setting": "K. pneumoniae", "value": 1, "unit": "µg/mL"}, {"measurement": "MIC S. aureus", "setting": "S. aureus", "value": 128, "unit": "µg/mL"}, {"measurement": "MIC E. coli", "setting": "E. coli", "value": 1, "unit": "µg/mL"}]}
